In US20260109708A1, “COMPOUNDS AND COMPOSITIONS USEFUL AS DEGRADERS OF MK2 KINASE” (Celgene Corporation, priority 2023, published 2026):

molecular target: T1, p38a activated, mitogen-activated protein kinase-activated protein kinase 2 (MAPKAP-K2 or MK2) enzyme (Homo sapiens, UniProt P49137); assay: MK2 OMNIA biochemical assay (AssayQuant continuous-read kinase assay); details: [MK-2]=0.05 nM, [ATP]=100 μM, [AQT0425]=10 μM
T1 construct: purchased Invitrogen PV3317
Source text: Example 56.2. Mitogen-Activated Protein Kinase-Activated Protein Kinase 2 AssayQuant Technologies® Assay for Compound Potency Assessment (MK2 OMNIA Biochemical Assay)
The protocol below describes a continuous-read kinase assay optimized to measure potency of compounds against p38a activated, mitogen-activated protein kinase-activated protein kinase 2 (MAPKAP-K2 or MK2) enzyme.
A 1.25× stock solution of MK2 (PV3317, from Invitrogen) and a 5× stock solution of ATP and Sox conjugated peptide substrate, AQT0425 (CSKS-AQT0425B, from AssayQuant Technologies), were prepared in 1× kinase reaction buffer consisting of 50 mM HEPES, pH 7.5, 0.01% Brij-35, 0.55 mM EGTA, 10 mM MgCl2 and 1 mM DTT.
10 μL of the ATP and substrate solution mix was added to a Coming (3574) 384-well, white, non-binding surface microtiter plate containing 0.5 μL of serially diluted test compounds prepared in DMSO. The reactions were started with the addition of 40 μL of the enzyme solution and monitored every 71 seconds for 240 min at kex 360/λem 485 in a Synergy H4 plate reader from BioTek at room temperature.
The initial linear portions of the net progress curves were fit according to a linear equation to yield the slope and percentage of inhibition (% inhibition) at each compound concentration. The net progress curves obtained during the entirety of reactions were also fit according to an ascending single-exponential equation (Eq. 1) to yield Vobs values at each compound concentration. Plots of % Inhibition versus degrader concentrations were fit according to a dose-response equation (Eq. 2) to generate IC50 and Hill slope values while plots of Vobs versus degrader concentration were fit according to Equation 3 (Eq. 3) to generate apparent Kinact values using the GraphPad PRISM software.
where F is the fluorescence intensity from the plate reader, V0 is a constant reflecting the relationship between the instrument readout and product concentration, t is time, e is Euler's number, and Vobs is the observed inactivation rate constant.
where % Inhibition is percentage of inhibition, IC50 is half maximal inhibitory concentration, [I] is the degraders concentration, and n is the Hill slope.
where kobs is the observed inactivation rate constant, Kinact is the apparent inactivation rate constant, K1 is the apparent inhibition constant, and [I] is the degrader concentration.

T1 sequence (P49137 whole entry): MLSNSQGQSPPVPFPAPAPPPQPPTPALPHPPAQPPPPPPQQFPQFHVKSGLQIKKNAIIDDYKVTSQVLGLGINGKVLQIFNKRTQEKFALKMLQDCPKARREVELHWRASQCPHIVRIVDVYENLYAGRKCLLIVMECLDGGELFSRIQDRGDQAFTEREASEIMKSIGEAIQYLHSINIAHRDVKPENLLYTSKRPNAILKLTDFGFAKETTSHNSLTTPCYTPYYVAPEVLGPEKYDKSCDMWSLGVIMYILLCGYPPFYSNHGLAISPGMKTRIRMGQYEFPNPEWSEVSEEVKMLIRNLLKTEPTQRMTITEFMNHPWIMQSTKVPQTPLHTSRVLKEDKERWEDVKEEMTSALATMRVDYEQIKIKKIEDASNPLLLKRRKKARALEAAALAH

| IC50 [nM] | Structure (SMILES) |
| --- | --- |
| < 150 | C[C@@H]1CNc2c(sc3ccc4nc(-c5cccc(C6CCN(CCN7CCN(c8ccc(C9CCC(=O)NC9=O)cc8)CC7)CC6)c5)ccc4c23)C(=O)N1 (stereo partly drawn) [Ex 18, 3-(4-(4-(2-(4-(3-((R)-10-Methyl-8-oxo-9,10,11,12-tetrahydro-8H-[1,4]diazepino[5′,6′:4,5]thieno[3,2-f]quinolin-3-yl)phenyl)piperidin-1-yl)ethyl)piperazin-1-yl)phenyl)piperidine-2,6-dione] |
| < 150 | C[C@@H]1CNc2c(sc3ccc4nc(-c5cccc(C6CCN(CCN7CCN(c8ccc9c(C%10CCC(=O)NC%10=O)nn(C)c9c8)CC7)CC6)c5)ccc4c23)C(=O)N1 (stereo partly drawn) [Ex 19, 3-(1-Methyl-6-(4-(2-(4-(3-((R)-10-methyl-8-oxo-9,10,11,12-tetrahydro-8H-[1,4]diazepino[5′,6′:4,5]thieno[3,2-f]quinolin-3-yl)phenyl)piperidin-1-yl)ethyl)piperazin-1-yl)-1H-indazol-3-yl)piperidine-2,6-dione] |
| < 150 | C[C@@H]1CNc2c(sc3ccc4nc(-c5ccc(N6CCN(CCN7CCC(c8ccc(C9CCC(=O)NC9=O)cc8)CC7)CC6)cc5)ccc4c23)C(=O)N1 (stereo partly drawn) [Ex 20, 3-(4-(1-(2-(4-(4-((R)-10-Methyl-8-oxo-9,10,11,12-tetrahydro-8H-[1,4]diazepino[5′,6′:4,5]thieno[3,2-f]quinolin-3-yl)phenyl)piperazin-1-yl)ethyl)piperidin-4-yl)phenyl)piperidine-2,6-dione] |
| 151 to 500 | C[C@@H]1CNc2c(sc3ccc4nc(-c5ccc(N6CCN(CCN7CCN(c8ccc9c(C%10CCC(=O)NC%10=O)nn(C)c9c8)CC7)CC6)cc5)ccc4c23)C(=O)N1 (stereo partly drawn) [Ex 21, 3-(1-Methyl-6-(4-(2-(4-(4-((R)-10-methyl-8-oxo-9,10,11,12-tetrahydro-8H-[1,4]diazepino[5′,6′:4,5]thieno[3,2-f]quinolin-3-yl)phenyl)piperazin-1-yl)ethyl)piperazin-1-yl)-1H-indazol-3-yl)piperidine-2,6-dione] |
| 151 to 500 | C[C@@H]1CNc2c(sc3ccc4nc(-c5ccc(N6CCN(CCN7CCN(c8ccc(C9CCC(=O)NC9=O)cc8)CC7)CC6)cc5)ccc4c23)C(=O)N1 (stereo partly drawn) [Ex 22, 3-(4-(4-(2-(4-(4-((R)-10-Methyl-8-oxo-9,10,11,12-tetrahydro-8H-[1,4]diazepino[5′,6′:4,5]thieno[3,2-f]quinolin-3-yl)phenyl)piperazin-1-yl)ethyl)piperazin-1-yl)phenyl)piperidine-2,6-dione] |
| < 150 | C[C@@H]1CNc2c(sc3ccc4nc(-c5ccc(N6CCN(C(=O)C(=O)N7CCN(c8ccc(C9CCC(=O)NC9=O)cc8)CC7)CC6)cc5)ccc4c23)C(=O)N1 (stereo partly drawn) [Ex 23, 3-(4-(4-(2-(4-(4-((R)-10-Methyl-8-oxo-9,10,11,12-tetrahydro-8H-[1,4]diazepino[5′,6′:4,5]thieno[3,2-f]quinolin-3-yl)phenyl)piperazin-1-yl)-2-oxoacetyl)piperazin-1-yl)phenyl)piperidine-2,6-dione] |
| < 150 | C[C@@H]1CNc2c(sc3ccc4nc(-c5ccc(N6CC7CC(C6)N7CCN6CCN(c7ccc(C8CCC(=O)NC8=O)cc7)CC6)cc5)ccc4c23)C(=O)N1 (stereo partly drawn) [Ex 24, 3-(4-(4-(2-(3-(4-((R)-10-Methyl-8-oxo-9,10,11,12-tetrahydro-8H-[1,4]diazepino[5′,6′:4,5]thieno[3,2-f]quinolin-3-yl)phenyl)-3,6-diazabicyclo[3.1.1]heptan-6-yl)ethyl)piperazin-1-yl)phenyl)piperidine-2,6-dione] |
| 151 to 500 | C[C@@H]1COc2c(sc3ccc4nc(-c5ccc(N6CCN(CCN7CCN(c8ccc(C9CCC(=O)NC9=O)cc8)CC7)CC6)cc5)ccc4c23)C(=O)N1 (stereo partly drawn) [Ex 25, 3-(4-(4-(2-(4-(4-((R)-10-Methyl-8-oxo-8,9,10,11-tetrahydro-[1,4]oxazepino[7′,6′:4,5]thieno[3,2-f]quinolin-3-yl)phenyl)piperazin-1-yl)ethyl)piperazin-1-yl)phenyl)piperidine-2,6-dione] |
| < 150 | C[C@@H]1COc2c(sc3ccc4nc(-c5ccc(N6CCN(CCN7CCN(c8ccc9c(C%10CCC(=O)NC%10=O)nn(C)c9c8)CC7)CC6)cc5)ccc4c23)C(=O)N1 (stereo partly drawn) [Ex 26] |
| < 150 | C[C@@H]1CNc2c(sc3ccc4nc(-c5ccc(C6CCN(CCN7CCN(c8ccc(C9CCC(=O)NC9=O)cc8)CC7)CC6)cc5)ccc4c23)C(=O)N1 (stereo partly drawn) [Ex 27, 3-(4-(4-(2-(4-(4-((R)-10-Methyl-8-oxo-9,10,11,12-tetrahydro-8H-[1,4]diazepino[5′,6′:4,5]thieno[3,2-f]quinolin-3-yl)phenyl)piperidin-1-yl)ethyl)piperazin-1-yl)phenyl)piperidine-2,6-dione] |
| < 150 | C[C@@H]1CNc2c(sc3ccc4nc(-c5ccc(C6CCN(CCN7CCN(c8ccc9c(C%10CCC(=O)NC%10=O)nn(C)c9c8)CC7)CC6)cc5)ccc4c23)C(=O)N1 (stereo partly drawn) [Ex 28, 3-(1-Methyl-6-(4-(2-(4-(4-((R)-10-methyl-8-oxo-9,10,11,12-tetrahydro-8H-[1,4]diazepino[5′,6′:4,5]thieno[3,2-f]quinolin-3-yl)phenyl)piperidin-1-yl)ethyl)piperazin-1-yl)-1H-indazol-3-yl)piperidine-2,6-dione] |
| < 150 | C[C@@H]1CNc2c(sc3ccc4nc(-c5ccc(C6CCN(CCN7CCC(c8ccc(C9CCC(=O)NC9=O)cc8)CC7)CC6)cc5)ccc4c23)C(=O)N1 (stereo partly drawn) [Ex 29, 3-(4-(1-(2-(4-(4-((R)-10-Methyl-8-oxo-9,10,11,12-tetrahydro-8H-[1,4]diazepino[5′,6′:4,5]thieno[3,2-f]quinolin-3-yl)phenyl)piperidin-1-yl)ethyl)piperidin-4-yl)phenyl)piperidine-2,6-dione] |
| < 150 | C[C@@H]1CNc2c(sc3ccc4nc(-c5ccc(C6CN(CCN7CCN(c8ccc(C9CCC(=O)NC9=O)cc8)CC7)C6)cc5)ccc4c23)C(=O)N1 (stereo partly drawn) [Ex 30, 3-(4-(4-(2-(3-(4-((R)-10-Methyl-8-oxo-9,10,11,12-tetrahydro-8H-[1,4]diazepino[5′,6′:4,5]thieno[3,2-f]quinolin-3-yl)phenyl)azetidin-1-yl)ethyl)piperazin-1-yl)phenyl)piperidine-2,6-dione] |
| < 150 | C[C@@H]1CNc2c(sc3ccc4nc(-c5ccc(C6=CCN(CCN7CCN(c8ccc(C9CCC(=O)NC9=O)cc8)CC7)CC6)cc5)ccc4c23)C(=O)N1 (stereo partly drawn) [Ex 31, 3-(4-(4-(2-(4-(4-((R)-10-Methyl-8-oxo-9,10,11,12-tetrahydro-8H-[1,4]diazepino[5′,6′:4,5]thieno[3,2-f]quinolin-3-yl)phenyl)-3,6-dihydropyridin-1(2H)-yl)ethyl)piperazin-1-yl)phenyl)piperidine-2,6-dione] |
| 151 to 500 | C[C@@H]1COc2c(sc3ccc4nc(-c5ccc(C6CCN(CCN7CCN(c8ccc(C9CCC(=O)NC9=O)cc8)CC7)CC6)cc5)ccc4c23)C(=O)N1 (stereo partly drawn) [Ex 32, 3-(4-(4-(2-(4-(4-((R)-10-Methyl-8-oxo-8,9,10,11-tetrahydro-[1,4]oxazepino[7′,6′:4,5]thieno[3,2-f]quinolin-3-yl)phenyl)piperidin-1-yl)ethyl)piperazin-1-yl)phenyl)piperidine-2,6-dione] |
| < 150 | C[C@@H]1COc2c(sc3ccc4nc(-c5ccc(C6CN(CCN7CCN(c8ccc(C9CCC(=O)NC9=O)cc8)CC7)C6)cc5)ccc4c23)C(=O)N1 (stereo partly drawn) [Ex 33, 3-(4-(4-(2-(3-(4-((R)-10-Methyl-8-oxo-8,9,10,11-tetrahydro-[1,4]oxazepino[7′,6′:4,5]thieno[3,2-f]quinolin-3-yl)phenyl)azetidin-1-yl)ethyl)piperazin-1-yl)phenyl)piperidine-2,6-dione] |
| 151 to 500 | C[C@@H]1CNc2c(sc3ccc4nc(-c5ccc(C6CCN(CCN7CCN(c8ccc(C9CCC(=O)NC9=O)cc8)CC7)CC6)nc5)ccc4c23)C(=O)N1 (stereo partly drawn) [Ex 34, 3-(4-(4-(2-(4-(5-((R)-10-Methyl-8-oxo-9,10,11,12-tetrahydro-8H-[1,4]diazepino[5′,6′:4,5]thieno[3,2-f]quinolin-3-yl)pyridin-2-yl)piperidin-1-yl)ethyl)piperazin-1-yl)phenyl)piperidine-2,6-dione] |
| < 150 | C[C@@H]1CNc2c(sc3ccc4nc(-c5ccc(C6CCN(CCN7CCN(c8ccc(C9CCC(=O)NC9=O)cc8)CC7)CC6)cn5)ccc4c23)C(=O)N1 (stereo partly drawn) [Ex 35, 3-(4-(4-(2-(4-(6-((R)-10-Methyl-8-oxo-9,10,11,12-tetrahydro-8H-[1,4]diazepino[5′,6′:4,5]thieno[3,2-f]quinolin-3-yl)pyridin-3-yl)piperidin-1-yl)ethyl)piperazin-1-yl)phenyl)piperidine-2,6-dione] |
